Experiments:
[1] = Dex loading and release study in simulated perilymph; type: physicochemical; conditions: dialysis loading, PCA 30 mg and Dex 6 mg in DMSO
HEI-OC1 cells = assay: Cellular uptake test of CPPs; type: cell-based, mouse; conditions: rhodamine-labeled peptides 0.025 mg/mL, flow cytometry

Substance	percentage of Dex loading [1]	fluorescence intensity fold higher compared with Penetratin (HEI-OC1 cells) [fold]	fluorescence intensity fold higher compared with Tat (HEI-OC1 cells) [fold]
PHEA-g-C18-Arg8 [PCA nanoparticles]	16.8%±3.2		
RRRRRRRR [Arg8]		18.8±3.2	16.1±1.3
